# From ChEMBL document CHEMBL5032498, “Discovery of Potent and Broad-Spectrum Pyrazolopyridine-Containing Antivirals against Enteroviruses D68, A71, and Coxsackievirus B3 by Targeting the Viral 2C Protein” (J Med Chem, 2021)
# Tests used:
# Enterovirus A71 [1] = test: Anti-viral activity against Enterovirus A71 Tainan/4643/1998 infected in human RD cells assessed as reduction in virus induced cytopathic effect incubated for 3 days by CPE assay; format: functional, organism-based; conditions: Enterovirus A, Tainan/4643/1998, RD, 72 h
# [2] = Cytotoxicity against Enterovirus D68 US/MO/14-18947 infected human RD cells incubated for 3 days by neutral red uptake method; format: functional; conditions: Rhabdomyosarcoma cell, 72 h, pooled result: one value given for 4 cell lines, strains, targets or settings, time 3 day
# [3] = Cytotoxicity against human RD cells incubated for 3 days by neutral red uptake method; format: cell-based, Rhabdomyosarcoma cell; conditions: time 3 day
# enterovirus D68 [4] = test: Anti-viral activity against Enterovirus D68 US/MO/14-18947 infected in human RD cells assessed as inhibition of plaque formation incubated for 3 days by plaque assay based crystal violet staining analysis; format: functional, organism-based; conditions: Enterovirus D, US/MO/14-18947, RD, 72 h
# [5] = Cytotoxicity against Enterovirus A71 Tainan/4643/1998 infected human RD cells incubated for 3 days by neutral red uptake method; format: functional; conditions: Rhabdomyosarcoma cell, 72 h, time 3 day
# enterovirus D68 [6] = test: Anti-viral activity against Enterovirus D68 US/IL/14-18952 infected in human RD cells assessed as reduction in virus induced cytopathic effect incubated for 3 days by CPE assay; format: functional, organism-based; conditions: Enterovirus D, US/IL/14-18952, RD, 72 h
# [7] = Cytotoxicity against Enterovirus A71 MP4 infected human RD cells incubated for 3 days by neutral red uptake method; format: functional; conditions: Rhabdomyosarcoma cell, 72 h, time 3 day
# enterovirus D68 [8] = test: Anti-viral activity against Enterovirus D68 US/MO/14-18949 infected in human RD cells assessed as reduction in virus induced cytopathic effect incubated for 3 days by CPE assay; format: functional, organism-based; conditions: Enterovirus D, US/MO/14-18949, RD, 72 h
# enterovirus D68 [9] = test: Anti-viral activity against Enterovirus D68 US/MO/14-18947 infected in human RD cells assessed as reduction in virus induced cytopathic effect incubated for 3 days by CPE assay; format: functional, organism-based; conditions: Enterovirus D, US/MO/14-18947, RD, 72 h
# Coxsackievirus B3 = test: Anti-viral activity against Coxsackievirus B3 infected in green monkey Vero cells assessed as reduction in virus induced cytopathic effect incubated for 3 days by CPE assay; format: functional, organism-based; conditions: Enterovirus B, 72 h
# [10] = Selectivity index, ratio of CC50 for african green monkey Vero cells to EC50 for Coxsackievirus B3 in green monkey Vero cells; format: toxicity, cell-based; conditions: read-out: Ratio CC50/EC50
# enterovirus D68 [11] = test: Anti-viral activity against Enterovirus D68 US/IL/14-18956 infected in human RD cells assessed as reduction in virus induced cytopathic effect incubated for 3 days by CPE assay; format: functional, organism-based; conditions: Enterovirus D, US/IL/14-18956, RD, 72 h
# Enterovirus = test: Anti-viral activity against Enterovirus D68 US/MO/14-18947 infected in human SH-SY5Y cells assessed as inhibition of virus replication by immunofluorescence staining using anti-VPI antibody; format: functional, organism-based; conditions: D68 US/MO/14-18947, SH-SY5Y
# [12] = Selectivity index, ratio of CC50 for human RD cells to EC50 for Enterovirus A71 MP4 in human RD cells; format: toxicity, cell-based; conditions: read-out: Ratio CC50/EC50
# [13] = Cytotoxicity against Enterovirus D68 US/IL/14-18952 infected human RD cells incubated for 3 days by neutral red uptake method; format: functional; conditions: Rhabdomyosarcoma cell, 72 h, time 3 day
# [14] = Selectivity index, ratio of CC50 for human RD cells to EC50 for Enterovirus A71 USA/CT/2016-19519 infected in human RD cells; format: toxicity, cell-based; conditions: read-out: Ratio CC50/EC50
# [15] = Selectivity index, ratio of CC50 for human RD cells to EC50 for Enterovirus D68 US/KY/14-18953 in human RD cells; format: toxicity, cell-based; conditions: read-out: Ratio CC50/EC50
# enterovirus D68 [16] = test: Anti-viral activity against Enterovirus D68 US/KY/14-18953 infected in human RD cells assessed as reduction in virus induced cytopathic effect incubated for 3 days by CPE assay; format: functional, organism-based; conditions: Enterovirus D, US/KY/14-18953, RD, 72 h
# [17] = Selectivity index, ratio of CC50 for human RD cells to EC50 for Enterovirus A71 Tainan/4643/1998 in human RD cells; format: toxicity, cell-based; conditions: read-out: Ratio CC50/EC50
# Enterovirus A71 [18] = test: Anti-viral activity against Enterovirus A71 MP4 infected in human RD cells assessed as reduction in virus induced cytopathic effect incubated for 3 days by CPE assay; format: functional, organism-based; conditions: Enterovirus A, 72 h
# enterovirus D68 [19] = test: Antiviral activity against Enterovirus D68 US/MO/14-18947 harboring 2C protein D183V/D323G drug resistant mutant by CPE assay followed by viral 2C gene sequencing; format: functional, organism-based; conditions: Enterovirus D
structure (smiles),measurement,setting,value
CNCCNC(=O)c1cc(C2CC2)nc2c1cnn2C(C)C,EC50,Enterovirus A71 [1],0.2 µM
same,CC50,[2],236 µM
same,CC50 at 72 h,[3],236 µM
same,EC50,enterovirus D68 [4],0.077 µM
same,CC50,[5],236 µM
same,EC50,enterovirus D68 [6],0.2 µM
same,CC50,[7],236 µM
same,EC50,enterovirus D68 [8],0.2 µM
same,EC50,enterovirus D68 [9],0.2 µM
same,EC50,Coxsackievirus B3,0.2 µM
same,selectivity ratio,[10],> 500
same,EC50,enterovirus D68 [11],0.2 µM
same,EC50,Enterovirus,0.07 µM
COCCNC(=O)c1cc(C2CC2)nc2c1cnn2C(C)C,CC50 at 72 h,[3],178 µM
CC(C)n1ncc2c(C(=O)NCCCN(C)C)cc(C3CC3)nc21,CC50,[5],74.1 µM
same,selectivity ratio,[10],> 500
Cc1cc(C(=O)NCCN(C)C)c2c(C)nn(C(C)(C)C)c2n1,CC50,[2],117 µM
same,EC50,enterovirus D68 [4],0.13 µM
same,selectivity ratio,[12],58.3
same,CC50,[7],117 µM
same,EC50,enterovirus D68 [8],0.7 µM
same,EC50,enterovirus D68 [9],0.4 µM
same,EC50,Coxsackievirus B3,2.1 µM
same,CC50,[13],117 µM
same,selectivity ratio,[14],89.7
same,EC50,Enterovirus,0.34 µM
CCN(CC)CCNC(=O)c1cc(C2CC2)nc2c1cnn2C(C)C,CC50,[5],89.9 µM
CC(C)n1ncc2c(C(=O)Nc3ccccn3)cc(-c3cccs3)nc21,CC50 at 72 h,[3],> 50 µM
same,EC50,enterovirus D68 [9],0.1 µM
same,selectivity ratio,[15],> 250
same,EC50,enterovirus D68 [16],0.2 µM
CC(C)c1cc(C(=O)NCCN(C)C)c2cnn(C(C)C)c2n1,CC50,[2],161 µM
same,EC50,enterovirus D68 [4],0.023 µM
same,CC50,[5],161 µM
same,EC50,enterovirus D68 [6],0.03 µM
same,CC50,[7],161 µM
same,selectivity ratio,[10],> 7500
same,CC50,[13],161 µM
same,EC50,enterovirus D68 [11],0.07 µM
same,EC50,Enterovirus,0.03 µM
CCn1ncc2c(C(=O)NCCNC)cc(C)nc21,CC50 at 72 h,[3],> 300 µM
same,selectivity ratio,[15],> 5.1
CC(CN)NC(=O)c1cc(C(C)C)nc2c1cnn2C(C)C (centres undefined),CC50 at 72 h,[3],118 µM
Cc1cc(C(=O)NCCN(C)C)c2cnn(C(C)C)c2n1,CC50,[5],112 µM
same,selectivity ratio,[10],> 1500
CC(C)n1ncc2c(C(=O)NCCN)cc(C3CC3)nc21,EC50,Enterovirus A71 [1],0.4 µM
same,CC50,[5],259 µM
CC(CN)NC(=O)c1cc(C2CC2)nc2c1cnn2C(C)C (centres undefined),CC50,[5],113 µM
same,EC50,enterovirus D68 [16],0.3 µM
CC(C1CC1)n1ncc2c(C(=O)NCCN(C)C)cc(C3CC3)nc21 (centres undefined),CC50,[5],28.4 µM
CCn1ncc2c(C(=O)NCCN(C)C)cc(C3CC3)nc21,CC50,[5],263 µM
same,selectivity ratio,[10],> 167
CNCCNC(=O)c1cc(C)nc2c1cnn2C(C)C,selectivity ratio,[17],> 600
same,selectivity ratio,[10],> 214
same,selectivity ratio,[15],> 130
CC(C)n1ncc2c(C(=O)NCCN3CCCC3)cc(C3CC3)nc21,EC50,Enterovirus A71 [1],0.2 µM
same,CC50 at 72 h,[3],46.5 µM
CCN(CC)CCCNC(=O)c1cc(C2CC2)nc2c1cnn2C(C)C,CC50,[5],43.8 µM
CCCn1ncc2c(C(=O)NCCN(C)C)cc(C3CC3)nc21,EC50,Enterovirus A71 [1],2 µM
same,CC50 at 72 h,[3],57.7 µM
CN(C)CCNC(=O)c1cc(C2CC2)nc2c1cnn2C,CC50 at 72 h,[3],> 300 µM
same,selectivity ratio,[15],> 30.6
CCn1ncc2c(C(=O)NCCN(C)C)cc(C)nc21,CC50 at 72 h,[3],> 300 µM
same,selectivity ratio,[15],> 16.4
Cc1cc(C(=O)NC2CCN(C)C2)c2cnn(C(C)C)c2n1 (centres undefined),selectivity ratio,[17],> 600
same,selectivity ratio,[10],> 375
same,selectivity ratio,[15],> 167
CC(C)n1ncc2c(C(=O)NCCN(C)C)cc(C(C)(C)C)nc21,CC50 at 72 h,[3],31.4 µM
CNCCNC(=O)c1cc(C2CC2)nc2c1c(C)nn2C(C)(C)C,CC50,[5],31.9 µM
CNCCNC(=O)c1cc(C(C)C)nc2c1cnn2C(C)C,selectivity ratio,[17],> 1000
same,selectivity ratio,[15],> 250
CC(C)n1ncc2c(C(=O)NCCN(C)C)cc(C3CC3)nc21,EC50,Enterovirus A71 [18],0.1 µM
same,CC50,[2],200 µM
same,CC50 at 72 h,[3],200 µM
same,EC50,enterovirus D68 [4],0.025 µM
same,CC50,[5],200 µM
same,EC50,enterovirus D68 [6],0.04 µM
same,EC50,enterovirus D68 [8],0.1 µM
same,EC50,enterovirus D68 [19],1.9 µM
same,EC50,enterovirus D68 [9],0.07 µM
same,CC50,[13],200 µM
CC(C)c1cc(C(=O)NCCO)c2cnn(C(C)C)c2n1,CC50 at 72 h,[3],> 100 µM
same,selectivity ratio,[15],> 10.2
CC(CN(C)C)NC(=O)c1cc(C2CC2)nc2c1cnn2C(C)C (centres undefined),CC50 at 72 h,[3],72.6 µM
same,selectivity ratio,[10],> 7500
Cc1cc(C(=O)NCCN)c2cnn(C(C)C)c2n1,selectivity ratio,[17],> 429
same,selectivity ratio,[10],> 78.9
same,selectivity ratio,[15],> 63.8
CNCCCNC(=O)c1cc(C2CC2)nc2c1cnn2C(C)C,CC50 at 72 h,[3],183 µM
CC(CN(C)C)NC(=O)c1cc(C(C)C)nc2c1cnn2C(C)C (centres undefined),selectivity ratio,[17],> 100
same,selectivity ratio,[15],> 100
CC(C)c1cc(C(=O)NCCN)c2cnn(C(C)C)c2n1,CC50 at 72 h,[3],170 µM
same,EC50,enterovirus D68 [16],0.6 µM
Cc1cc(C(=O)NC2CN(C)C2)c2cnn(C(C)C)c2n1,selectivity ratio,[17],> 41.1
same,selectivity ratio,[10],> 78.9
same,selectivity ratio,[15],> 26.5
CCC(C)n1ncc2c(C(=O)NCCN(C)C)cc(C3CC3)nc21 (centres undefined),CC50,[5],40.7 µM
CC(C)n1ncc2c(C(=O)NCCN)cc(C(C)(C)C)nc21,CC50 at 72 h,[3],24.6 µM
Cc1nn(C(C)(C)C)c2nc(C3CC3)cc(C(=O)NCCN(C)C)c12,CC50 at 72 h,[3],45.2 µM
